“And” between values parts separate entries of the source, which are not always exact repeats. Equal entries are not always repeated.
What was measured:
[1] = system: mice; assay: Acute toxicity (rotorod minimal motor impairment, overt signs, death) in mice; format: in vivo; set-up: key: (+++) means some animals died at 100 mg/kg and all animals died at 300 mg/kg; (++) means that some toxicity observed at 100 mg/kg and all animals died at 300 mg/kg; (−) means no toxicity observed at 100 mg/kg and some observed at 300 mg/kg but no animals died at 300 mg/kg; settings: i.p., 100 and 300 mg/kg
Experimental: Acute toxicity was assessed by monitoring animals for overt signs of impaired neurological or muscular function. The rotorod test measures minimal motor impairment (MMI) by placing mice on a rod rotated a 6 rpm. A compound is considered toxic if the mice fall off the rod three times during a 1-min period. Additionally, mice were observed and noted for circular or zigzag gaits, abnormal body posture and spread of the legs, tremors, hyperactivity, lack of exploratory behavior, somnolence, stupor, catalepsy, loss of placing response and change in muscle tone.
(§1) For activity, (+) means MES test protection occurred at 100 mg/kg delivered i.p. in mice and (−) means that no activity was observed. For toxicity, (+++) means some animals died at 100 mg/kg and all animals died at 300 mg/kg; (++) means that some toxicity observed at 100 mg/kg and all animals died at 300 mg/kg; and (−) means no toxicity observed at 100 mg/kg and some observed at 300 mg/kg but no animals died at 300 mg/kg.

[2] = system: MES-induced seizures; assay: Maximal electroshock (MES) test for anti-convulsive activity in mice; format: in vivo; set-up: key: (+) means MES test protection occurred at 100 mg/kg delivered i.p. in mice; (−) means that no activity was observed; settings: i.p., 100 mg/kg
Experimental: The maximal electroshock (MES) test was used to initially screen compounds for anti-convulsive activity in mice.
In the MES test, 50 mA of […] alternating current was delivered to 19-25 g mice for 2 s by a corneal electrode which had been primed with an electrolyte solution containing an anesthetic agent (0.5% tetracaine HCl). Mice were tested at various intervals following doses of 30, 100 or 300 mg/kg of test compound given by i.p. injection in 0.01 ml/g of the aqueous carrier. Animals are considered protected from MES-induced seizures upon abolition of hindlimb tonic extensor component of the seizure (Swinyard et al. 1989; White et al. 1995a; White et al. 1995b).
as §1

[3] = system: electrically-induced convulsions; assay: Anti-convulsive ED50 in rats, oral (electrically-induced convulsions); format: in vivo; settings: delivered orally, amelioration of electrically-induced convulsions
Experimental: Suitable dosages for the compounds and methods disclosed herein range from about 0.05, 0.1, 0.2 or 0.5 mg/kg body weight to about 100 or 200 mg/kg body weight. In certain embodiments, dosages range from about 0.5 to 1 mg/kg body weight to about 100 mg/kg body weight. In other embodiments doses range from about 10 to about 50 mg/kg body weight. Performance of studies to determine an optimal dosage for a particular condition using a particular compound is well within the level of ordinary skill in this field. […] For example, the ED50 of bicyclo,4-F-PCP for alleviation, treatment, or prevention of Alzheimer's and Parkinson's disease would be expected to be on the order of 3 mg/kg.
Compound 4 (Bicyclo,4-F-PCP) was tested in rats using 30 mg/kg delivered orally.

[4] = Aqueous solubility of fumarate salt; format: physicochemical; settings: read-out: solubility in aqueous solution
[5] = pKa determination; format: physicochemical
[6] = system: NMDA receptors (MK-801 binding site); assay: MK-801 (dizocilpine) binding site assay; settings: rat forebrain membrane, 20 mM HEPES pH 7.5, 25° C., 90 min; FIG. 3
Experimental: NMDA receptors were isolated from rat forebrain membrane (Bmax=830 fmol/mg protein) and incubated with ^3H-labeled MK-801 maleate (15-30 Ci/mmol) in 20 mM HEPES (pH 7.5) buffer at 25° C. for 90 min to yield labeled receptors. MK-801 is a known non-competitive antagonist of NMDA receptor.
Selected concentrations of non-labeled bicyclo,4-F-PCP were incubated with the labeled receptors in 20 mM HEPES (pH 7.5) buffer at 25° C. for 90 min. At the conclusion of the assay, the reaction mixture was filtered immediately on glass filters by vacuum filtration and washed twice with buffer solutions. The radioactivity trapped on the filters was measured, compared with controls, and the ki and IC50 values of bicyclo,4-F-PCP were calculated.

[7] = system: NMDA receptors (competitive site, CGP 39653); assay: NMDA agonist binding site assay ([3H]CGP 39653); settings: rat forebrain membrane, 50 mM TRIS-acetate pH 7.4, 0-4° C., 60 min; FIG. 4
Experimental: NMDA receptors were isolated from rat forebrain membrane (Bmax=0.77 pmol/mg tissue) and incubated with ^3H-labeled CGP 39653 (15-30 Ci/mmol) in 50 mM TRIS-acetate (pH 7.4) buffer at 0-4° C. for 60 min to yield labeled receptors. CGP 39653 is a known competitive antagonist of NMDA receptor.
Selected concentrations of non-labeled bicyclo,4-F-PCP were incubated with the labeled receptors in 50 mM TRIS-Acetate (pH 7.4) buffer at 0-4° C. for 60 min. At the conclusion of the assay, the reaction mixture was immediately filtered using glass filters and vacuum filtration, washing twice with buffer solutions. The radioactivity trapped on the filters was measured, compared with controls, and the ki and IC50 values of bicyclo,4-F-PCP calculated.

[8] = log P determination; format: physicochemical; settings: measure of lipophilicity

| Compound | Toxicity [1] | Activity (MES test protection) [2] | ED50 ([3]; Rattus norvegicus, po, read-out: ED50 (effective dose)) | ED50 (effective dose) ([3]; listed as bicyclo,4-F-PCP) | solubility [4] | pKa [5] | displacement of [3H] MK-801 maleate bound to NMDA receptors [6] | displacement of CGP 39653 from NMDA receptors [7] | logP [8] |
| --- | --- | --- | --- | --- | --- | --- | --- | --- | --- |
| NC1(c2ccc(F)cc2)CC2CCC1C2 (racemic) [Compound 2, (±)-2-(4-fluorophenyl)-bicyclo[2.2.1]hept-2-ylamine] | ++ | + |  |  |  |  |  |  |  |
| Fc1ccc(C2(N3CCCCC3)CC3CCC2C3)cc1 (racemic) [Compound 4, (±) 1-[2-(4-fluorophenyl)-bicyclo[2.2.1]hept-2-yl]-piperidine] | − | + | 28.3 mg/kg | 28 mg/kg | 36600 µM and 14200 µg/mL | 8.87 | can displace | does not displace | 2.07 |
| NC1(c2ccccc2F)CCCCCC1 [cycloheptyl 2-F amine] | ++ | + |  |  |  |  |  |  |  |
| Fc1ccc(C2(N3CCCCC3)CCCCCC2)cc1 [cycloheptyl 4-F piperidine] | +++ | + |  |  |  |  |  |  |  |

Source: patent US8703799B2, “Non-competitive NMDA receptor antagonists” (priority 2006, dated 2014)
